Entries after “also recorded” stand apart in the source; their conditions may differ.
Assays:
AKT [1] = assay: Western blotting of total AKT; type: cell-based; details: PC3 cells, 1 μM, 24 h
AKT [2] = assay: Western blotting of T-AKT in SW620 cells; type: cell-based; details: SW620 cells
AKT [3] = assay: Western blotting of T-AKT in PANC-1 cells; type: cell-based; details: PANC-1 cells (KRAS mutant), 1 μM, 24 h
SW620 cells = assay: Colony formation assay in SW620 cells; type: cell-based; details: 2 weeks, crystal violet
[4] = tested on: P-AKT (S473), P-PRAS40 (T246), P-S6 (S240/244); assay: Western blotting of downstream signaling in PC3 cells; type: cell-based; details: 1 μM, 24 h
P-PRAS40 = assay: Western blotting of P-PRAS40 in SW620 cells; details: 1 μM

Cc1ncsc1-c1ccc(CNC(=O)[C@@H]2C[C@@H](O)CN2C(=O)[C@@H](NC(=O)COCC(=O)NCCc2cccc(-c3ccc4nc(-c5cccnc5N)n(-c5ccc(C6(N)CCC6)cc5)c4n3)c2)C(C)(C)C)cc1 [Compound 33, (2S,4R)-1-((S)-2-(2-(2-((3-(3-(4-(1-Aminocyclobutyl)phenyl)-2-(2-aminopyridin-3-yl)-3H-imidazo[4,5-b]pyridin-5-yl)phenethyl)amino)-2-oxoethoxy)acetamido)-3,3-dimethylbutanoyl)-4-hydroxy-N-(4-(4-methylthiazol-5-yl)benzyl)pyrrolidine-2-carboxamide]
T-AKT protein level / AKT degradation (western blot, in words) (AKT [1]): effectively induced T-AKT degradation

Cc1ncsc1-c1ccc(CNC(=O)[C@@H]2C[C@@H](O)CN2C(=O)[C@@H](NC(=O)COCCOCCOCCOCCOCC(=O)NCCc2cccc(-c3ccc4nc(-c5cccnc5N)n(-c5ccc(C6(N)CCC6)cc5)c4n3)c2)C(C)(C)C)cc1 [Compound 40, N^1-(3-(3-(4-(1-Aminocyclobutyl)phenyl)-2-(2-aminopyridin-3-yl)-3H-imidazo[4,5-b]pyridin-5-yl)phenethyl)-N^17-((S)-1-((2S,4R)-4-hydroxy-2-((4-(4-methylthiazol-5-yl)benzyl)carbamoyl)pyrrolidin-1-yl)-3,3-dimethyl-1-oxobutan-2-yl)-3,6,9,12,15-pentaoxaheptadecanediamide]
T-AKT protein level / AKT degradation (western blot, in words) (AKT [1]): restored effective AKT degradation activity

Cc1ncsc1-c1ccc(CNC(=O)[C@@H]2C[C@@H](O)CN2C(=O)[C@@H](NC(=O)CCCCCCCCCC(=O)N2CCN(CC[C@H](NC(=O)C3(N)CCN(c4ncnc5[nH]ccc45)CC3)c3ccc(Cl)cc3)CC2)C(C)(C)C)cc1 [MS21, reference compound]
T-AKT degradation (in words) (AKT [2]; indicated concentrations, 24 h, Figure 7E): largely ineffective | T-AKT degradation (in words) (AKT [3]): unable to reduce the AKT protein level | inhibition of colony formation (in words) (SW620 cells): no effect

Cc1ncsc1-c1ccc(CNC(=O)[C@@H]2C[C@@H](O)CN2C(=O)[C@@H](NC(=O)CNC(=O)CCc2cccc(-c3ccc4nc(-c5cccnc5N)n(-c5ccc(C6(N)CCC6)cc5)c4n3)c2)C(C)(C)C)cc1 [Compound 11, (2S,4R)-1-((S)-2-(2-(3-(3-(3-(4-(1-Aminocyclobutyl)phenyl)-2-(2-aminopyridin-3-yl)-3H-imidazo[4,5-b]pyridin-5-yl)phenyl)propanamido)acetamido)-3,3-dimethylbutanoyl)-4-hydroxy-N-(4-(4-methylthiazol-5-yl)benzyl)pyrrolidine-2-carboxamide]
T-AKT protein level / AKT degradation (western blot, in words) (AKT [1]): completely inactive

Cc1ncsc1-c1ccc(CNC(=O)[C@@H]2C[C@@H](O)CN2C(=O)[C@@H](NC(=O)CCCCCCCCCCNC(=O)CCc2cccc(-c3ccc4nc(-c5cccnc5N)n(-c5ccc(C6(N)CCC6)cc5)c4n3)c2)C(C)(C)C)cc1 [Compound 20, (2S,4R)-1-((S)-2-(11-(3-(3-(3-(4-(1-Aminocyclobutyl)phenyl)-2-(2-aminopyridin-3-yl)-3H-imidazo[4,5-b]pyridin-5-yl)phenyl)propanamido)undecanamido)-3,3-dimethylbutanoyl)-4-hydroxy-N-(4-(4-methylthiazol-5-yl)benzyl)pyrrolidine-2-carboxamide]
T-AKT protein level / AKT degradation (western blot, in words) (AKT [1]): highly effective AKT degraders

Cc1ncsc1-c1ccc(CNC(=O)[C@@H]2C[C@@H](O)CN2C(=O)[C@@H](NC(=O)CCCCCCCCCC(=O)NCCc2cccc(-c3ccc4nc(-c5cccnc5N)n(-c5ccc(C6(N)CCC6)cc5)c4n3)c2)C(C)(C)C)cc1 [Compound 49, N^1-(3-(3-(4-(1-Aminocyclobutyl)phenyl)-2-(2-aminopyridin-3-yl)-3H-imidazo[4,5-b]pyridin-5-yl)phenethyl)-N^11-((S)-1-((2S,4R)-4-hydroxy-2-((4-(4-methylthiazol-5-yl)benzyl)carbamoyl)pyrrolidin-1-yl)-3,3-dimethyl-1-oxobutan-2-yl)undecanediamide]
T-AKT protein level / AKT degradation (western blot, in words) (AKT [1]): particularly effective in T-AKT degradation; also recorded: highly effective AKT degraders | downstream signaling inhibition (P-AKT, P-PRAS40, P-S6; western blot, in words) [4]: particularly effective

Cc1ncsc1-c1ccc(CNC(=O)[C@@H]2C[C@@H](O)CN2C(=O)[C@@H](NC(=O)CCCCCCCCC(=O)NCCc2cccc(-c3ccc4nc(-c5cccnc5N)n(-c5ccc(C6(N)CCC6)cc5)c4n3)c2)C(C)(C)C)cc1 [Compound 48, N^1-(3-(3-(4-(1-Aminocyclobutyl)phenyl)-2-(2-aminopyridin-3-yl)-3H-imidazo[4,5-b]pyridin-5-yl)phenethyl)-N^10-((S)-1-((2S,4R)-4-hydroxy-2-((4-(4-methylthiazol-5-yl)benzyl)carbamoyl)pyrrolidin-1-yl)-3,3-dimethyl-1-oxobutan-2-yl)decanediamide]
T-AKT protein level / AKT degradation (western blot, in words) (AKT [1]): particularly effective in T-AKT degradation; also recorded: highly effective AKT degraders | downstream signaling inhibition (P-AKT, P-PRAS40, P-S6; western blot, in words) [4]: particularly effective

Cc1ncsc1-c1ccc(CNC(=O)[C@@H]2C[C@@H](O)CN2C(=O)[C@@H](NC(=O)CCOCCC(=O)NCCc2cccc(-c3ccc4nc(-c5cccnc5N)n(-c5ccc(C6(N)CCC6)cc5)c4n3)c2)C(C)(C)C)cc1 [Compound 34, (2S,4R)-1-((S)-2-(3-(3-((3-(3-(4-(1-Aminocyclobutyl)phenyl)-2-(2-aminopyridin-3-yl)-3H-imidazo[4,5-b]pyridin-5-yl)phenethyl)amino)-3-oxopropoxy)propanamido)-3,3-dimethylbutanoyl)-4-hydroxy-N-(4-(4-methylthiazol-5-yl)benzyl)pyrrolidine-2-carboxamide]
T-AKT protein level / AKT degradation (western blot, in words) (AKT [1]): effectively induced T-AKT degradation

Cc1ncsc1-c1ccc(CNC(=O)[C@@H]2C[C@@H](O)CN2C(=O)[C@@H](NC(=O)CCNC(=O)CCc2cccc(-c3ccc4nc(-c5cccnc5N)n(-c5ccc(C6(N)CCC6)cc5)c4n3)c2)C(C)(C)C)cc1 [Compound 12, (2S,4R)-1-((S)-2-(3-(3-(3-(3-(4-(1-Aminocyclobutyl)phenyl)-2-(2-aminopyridin-3-yl)-3H-imidazo[4,5-b]pyridin-5-yl)phenyl)propanamido)propanamido)-3,3-dimethylbutanoyl)-4-hydroxy-N-(4-(4-methylthiazol-5-yl)benzyl)pyrrolidine-2-carboxamide]
T-AKT protein level / AKT degradation (western blot, in words) (AKT [1]): completely inactive

Cc1ncsc1-c1ccc(CNC(=O)[C@@H]2C[C@@H](O)CN2C(=O)[C@@H](NC(=O)CCCCCCCC(=O)NCCc2cccc(-c3ccc4nc(-c5cccnc5N)n(-c5ccc(C6(N)CCC6)cc5)c4n3)c2)C(C)(C)C)cc1 [Compound 47, N^1-(3-(3-(4-(1-Aminocyclobutyl)phenyl)-2-(2-aminopyridin-3-yl)-3H-imidazo[4,5-b]pyridin-5-yl)phenethyl)-N^9-((S)-1-((2S,4R)-4-hydroxy-2-((4-(4-methylthiazol-5-yl)benzyl)carbamoyl)pyrrolidin-1-yl)-3,3-dimethyl-1-oxobutan-2-yl)nonanediamide]
T-AKT protein level / AKT degradation (western blot, in words) (AKT [1]): particularly effective in T-AKT degradation | downstream signaling inhibition (P-AKT, P-PRAS40, P-S6; western blot, in words) [4]: particularly effective

Cc1ncsc1-c1ccc([C@H](C)NC(=O)[C@H]2C[C@H](O)CN2C(=O)[C@@H](NC(=O)CCCCCCCCCCNC(=O)CCc2cccc(-c3ccc4nc(-c5cccnc5N)n(-c5ccc(C6(N)CCC6)cc5)c4n3)c2)C(C)(C)C)cc1 [Compound 63, (2R,4S)-1-((S)-2-(11-(3-(3-(3-(4-(1-Aminocyclobutyl)phenyl)-2-(2-aminopyridin-3-yl)-3H-imidazo[4,5-b]pyridin-5-yl)phenyl)propanamido)undecanamido)-3,3-dimethylbutanoyl)-4-hydroxy-N-((S)-1-(4-(4-methylthiazol-5-yl)phenyl)ethyl)pyrrolidine-2-carboxamide]
T-AKT level (western blot verification for proteomics, in words) (AKT [2]; 1 μM, 18 h, Figure S4): no effect | effect on AKT protein levels at high concentrations (in words) (AKT [2]; concentrations up to 10 μM, 24 h): no effect | P-PRAS40 inhibition (western blot verification for proteomics, in words) (P-PRAS40; 18 h, Figure S4): no effect

Nc1ncccc1-c1nc2ccc(-c3ccccc3)nc2n1-c1ccc(C2(N)CCC2)cc1 [ARQ-092, 3-(3-(4-(1-Aminocyclobutyl)phenyl)-5-phenyl-3H-imidazo[4,5-b]pyridin-2-yl)pyridin −2-amine, reference compound]
phosphorylation of PRAS40 in time-course study (in words) (P-PRAS40; up to 24 h): potently inhibited

Cc1ncsc1-c1ccc(CNC(=O)[C@@H]2C[C@@H](O)CN2C(=O)[C@@H](NC(=O)CCOCCOCCOCCOCCOCCC(=O)NCCc2cccc(-c3ccc4nc(-c5cccnc5N)n(-c5ccc(C6(N)CCC6)cc5)c4n3)c2)C(C)(C)C)cc1 [Compound 41, N^1-(3-(3-(4-(1-Aminocyclobutyl)phenyl)-2-(2-aminopyridin-3-yl)-3H-imidazo[4,5-b]pyridin-5-yl)phenethyl)-N^19-((S)-1-((2S,4R)-4-hydroxy-2-((4-(4-methylthiazol-5-yl)benzyl)carbamoyl)pyrrolidin-1-yl)-3,3-dimethyl-1-oxobutan-2-yl)-4,7,10,13,16-pentaoxanonadecanediamide]
T-AKT protein level / AKT degradation (western blot, in words) (AKT [1]): restored effective AKT degradation activity

Source: publication PMC9613624 (Journal of medicinal chemistry, 2022)
